Key:
[1] = system: F1 hybrids FS1-FS4 x Fidel and Fidel wheat; assay: Genetic Condition Studies Experiment 1, F1 hybrids sprayed; assay type: in vivo
Text: Experiment 1: Six flats containing Metro Mix 350™ are planted with F1 hybrids derived from each of the following crosses: FS1×Fidel: FS2×Fidel; FS3×Fidel; FS4×Fidel and Fidel (susceptible, parental cultivar). One week later, the flats are sprayed, one flat per herbicide rate, with PURSUIT™ at 50, 100, 150, 200, and 250 g/ha to determine the genetic condition of the herbicide resistant trait in the selections, FS1-FS4. The herbicide is applied with a laboratory belt sprayer at a rate of 950 L/ha with a belt speed of 12.5 sec/rev using sprayer nozzle #40015E. Tween 20™ is used as the surfactant at 0.25% v/v in the herbicide solutions. Plants are rated 10 days after herbicide treatment.

[2] = system: testcross progeny Fidel x (Fidel/FS1-FS4); assay: Genetic Condition Studies Experiment 3, testcrosses back to Fidel; assay type: in vivo, wheat; conditions: out of 49 test-cross progeny sprayed; 200 g/ha; rated three and one-half weeks later
Text: Experiment 3: Testcrosses of the F1 hybrids (described in Experiment 1) back to Fidel are sprayed with 200 g/ha of PURSUIT™. The following testcrosses are planted in 6 inch azalea pots in Metro Mix 350™. The number of pots planted per cross is indicated by the number after the cross:
Approximately one month later, the plants are sprayed (except for Fidel). PURSUIT™ (200 g/ha) is applied as previously described. The plants are rated three and one-half weeks later.

[3] = system: AHAS (acetohydroxyacid synthase); assay: AHAS Enzyme Assay I and II (M4 Plants); assay type: biochemical, wheat
Experimental: Enzyme Extraction: For the extraction of AHAS, 10 grams of tissue are powdered in liquid nitrogen and then homogenized in 100 mM potassium phosphate buffer (pH 7.5) containing 10 mM pyruvate, 5 mM MgCl2, 5 uM EDTA, 100 uM FAD, 1 mM valine, 1 mM leucine, 10% glycerol, and 10 mM cysteine. The homogenate is filtered through a nylon cloth (53 uM mesh) and centrifuged at 25,000 g for 20 minutes. The supernatant fraction is brought to 50% saturation with respect to (NH4)2SO4 and allowed to stand for 20-30 minutes on ice. It is then centrifuged at 25,000 g for 20 minutes and the supernatant is discarded. The ammonium sulfate pellet is dissolved in 50 mM potassium phosphate buffer (pH 7.5) containing 1 mM EDTA and 100 mM NaCl and used for the assay procedures.
AHAS Assay: AHAS activity is measured by estimation of the product, acetolactate, after conversion by decarboxylation in the presence of acid to acetoin. Standard reaction mixtures contain the enzyme in 50 mM potassium phosphate buffer (pH 7.0) containing 100 mM sodium pyruvate, 10 mM MgCl2, 1 mM thiamine pyrophosphate, and 10 uM FAD. This mixture is incubated at 37° C. for one hour after which time the reaction is stopped with the addition of […] to make a final concentration of 0.85% […] in the tube. The reaction product is allowed to decarboxylate at 60° C. for 15 minutes. The acetoin formed is determined by incubating with creatine (0.17%) and 1-napthol (1.7% in 4N NaOH) by the method of Westerfield (Westerfield, W. W., J. Biol. Chem., 161, 495-502 (1945)). Maximum color is observed by incubation at 60° C. for 15 minutes and then further incubation at room temperature for 15 minutes. The absorption of color complex is measured at 520 nm. Appropriate checks of direct acetoin formation during the enzyme assay are made. Each assay is run at least in duplicate and the experiments are repeated a minimum of two times.
Herbicide Application: Two flats are planted with approximately 100 seeds of each wheat selection (FS1, FS2, and FS4) and Fidel in sterile Metro Mix 350. Ten days later, each flat is sprayed postemergence with 62.5 g/ha of PURSUIT™. The spray delivery rate is 400 L/ha with a belt speed of 8.2 sec/rev using nozzle #65015E. Tween 20™ is used as a surfactant at 0.25% v/v. The plants are harvested three days later and assayed for AHAS activity.
Enzyme Extraction and AHAS Assay: As previously described.
Herbicide Application: As described above (Enzyme Assay I) except that the spray delivery rate is 950 l/ha with a belt speed of 12.8 sec/rev using nozzle #40015E.

Q: What does the source list for `CCc1cnc(C2=NC(C)(C(C)C)C(=O)N2)c(C(=O)O)c1` (stereo not shown) [PURSUIT, 5-ethyl-2-(4-isopropyl-4-methyl-5-oxo-2-imidazolin-2-yl)-nicotinic acid]?
A: rate at which Fidel is killed ([1]; Fidel, rated 10 days after treatment): 150 g/ha; damage to Fidel ([1]; Fidel, rates of 50 and 100 g/ha): severely injured; damage to F1 hybrids ([1]; hybrids FS1-FS4 x Fidel, 250 g/ha, rated 10 days after treatment): stunted but not killed; test-cross progeny killed [2]: 20; test-cross progeny that survive [2]: 29; resistance of AHAS activity to inhibition ([3]; homozygous resistant mutant lines, unsprayed plants, compared to Fidel enzyme): moderate levels of resistance; resistance of AHAS activity to inhibition ([3]; selections sprayed with 62.5 g/ha PURSUIT, compared to sprayed Fidel): significantly higher level of resistance
